In patent US10508118B2, “Pyrimidopyrrole compounds, method for preparing the same, pharmaceutical compositions comprising the same and uses thereof” (Xiamen University, priority 2015, dated 2019):
Like-named read-outs stand apart in the source and are kept apart here.

Assays:
Format in all cases: cell-based
EML4-ALK-BaF3 = biological target: T1, EML4-ALK-BaF3 (Homo sapiens, UniProt Q9UM73); experiment: Growth inhibition of EML4-ALK transformed BaF3 cells (MTS); conditions: for IC50: EML4-ALK-BaF3 cells, 48 hours, MTS
T1 construct: expressed in transfected cells; host or cells: Ba/F3 cells; the other entry of the earlier key: EML4 (Q9HC35, Echinoderm microtubule-associated protein-like 4)
Procedure: (§1) If compounds can inhibit the activity of ALK kinase or the activity of ALK signaling pathway, they can inhibit the growth of ALK transformed Ba/F3 cells. […] The broad-spectrum toxicity of compounds can be evaluated by determining the effect of the compounds on the growth of wild type BaF3 cells.
(§2) 1) Medium: DMEM (Dulbecco's modified eagle medium) or RPMI1640 (containing 10% fetal bovine serum, 100 μg/mL ampicillin, 100 μg/mL streptomycin).)
(§3) Reagents: MTS solution (2 mg/mL MTS (3-(4,5-dimethylthiazol-2-yl)-5-(3-carboxymethoxyphenyl)-2-(4-sulfophenyl)-2H-tetrazolium, inner salt); 100 μg/mL PES ([…])).
(§4) 3) Test of compound: Transformed Ba/F3 cells (EML4-ALK-BaF3, EML4-ALK(L1196M)-BaF3, NPM-ALK-BaF3) (2×10^4/well) were distributed into 96-well plates, with volume of cell sap of 90 μL, 10 μL of compounds in gradient concentration (the highest concentration 10 was μM, followed by 1/3 step by step dilution, a total of 8 concentrations were set, the system contained 0.1% DMSO (dimethyl sulfoxide)). The cell plates mixed with compounds were cultured in a cell incubator (37° C.; 5% CO2) for 48 hours, and the added 20 μL of MTS reaction solution, mixed and incubated in cell incubator (37° C.; 5% CO2) for 1-4 hours. The OD value at a wavelength of 490 nm was measured using eliasa (VARIOSKAN FLASH, Thermo). Three parallels were set up for each group, with a final concentration of 0.1% DMSO as negative control, and with medium without cells and compounds as blank control.
(§5) 4) Calculation of IC50 value: the semi inhibitory concentration of the compound acting on the cells was calculated using GradPad Prism 5 software according to the cell inhibitory rate measured.

EML4-ALK (L1196M)-BaF3 = biological target: T2, EML4-ALK (L1196M)-BaF3 (Homo sapiens, UniProt Q9UM73, L1196M); experiment: Growth inhibition of EML4-ALK (L1196M) transformed BaF3 cells (MTS); conditions: 48 hours
T2 construct: expressed in transfected cells; host or cells: Ba/F3 cells; the other entry of the earlier key: EML4 (Q9HC35, Echinoderm microtubule-associated protein-like 4)
Procedure: as §1, §2, §3, §4, §5

NPM-ALK-BaF3 = biological target: T3, NPM-ALK-BaF3 (Homo sapiens, UniProt Q9UM73); experiment: Growth inhibition of NPM-ALK transformed BaF3 cells (MTS); conditions: 48 hours
T3 construct: expressed in transfected cells; host or cells: Ba/F3 cells; the other entry of the earlier key: NPM1 (P06748, Nucleophosmin)
Procedure: (§6) The activity of compounds against ALK kinase was evaluated by inhibiting the growth of cellular ALK kinase EML4-ALK-BaF3, EML4-ALK (L1196M)-BaF3, NPM-ALK-BaF3, and wild type BaF3 (Proc. Natl. Acad. Sci. USA., 2006, 103, 3153-8.) The growth of cellular ALK kinase EML4-ALK-BaF3, EML4-ALK(L1196M)-BaF3, and NPM-ALK-BaF3 depends on their kinase activity. If compounds can inhibit the activity of ALK kinase or the activity of ALK signaling pathway, they can inhibit the growth of ALK transformed Ba/F3 cells. […] The broad-spectrum toxicity of compounds can be evaluated by determining the effect of the compounds on the growth of wild type BaF3 cells.
as §2, §3
as §4, with “control. The inhibition rate of cell growth was calculated by the following formula: Cell inhibition rate %=1−(OD experimental group−OD blank group)/(OD negative group−OD blank group)*100%” for “control.”
as §5

wild type BaF3 = experiment: Growth inhibition of wild type BaF3 cells (broad-spectrum toxicity); conditions: Mus musculus, BaF3, 48 h, MTS
Procedure: as §6, §2, §3
as §4, with “control. The inhibition rate of cell growth was calculated by the following formula: Cell inhibition rate %=1−(OD experimental group−OD blank group)/(OD negative group−OD blank group)*100%” for “control.”
as §5

[1] = Table 11, read-out: EML4-ALK (L1196M) (IC50 nM)
[2] = Table 12, read-out: L1196M (IC50 nM)

Row | SMILES | IC50 (EML4-ALK-BaF3; Table 11) [nM] | IC50 (EML4-ALK (L1196M)-BaF3; [1]) [nM] | IC50 (NPM-ALK-BaF3; Table 11) [nM] | IC50 (wild type BaF3; Table 11) [nM] | IC50 (EML4-ALK-BaF3; Table 12) [nM] | targeting selectivity (EML4-ALK-BaF3; ratio of IC50 between wild-type BaF3 and ALK transformed BaF3 cells) | IC50 (EML4-ALK (L1196M)-BaF3; [2]) [nM] | IC50 (NPM-ALK-BaF3; Table 12) [nM] | IC50 (wild type BaF3; Table 12) [nM]
1 | CC(C)Sc1ccccc1CNc1nc(Nc2ccc(N3CCC(O)CC3)cc2)nc2cc[nH]c12 [IM-2] | 1240 | 1310 | 1620 | 2900 | – | – | – | – | –
2 | COc1cc(N2CCC(N3CCN(C)CC3)CC2)ccc1Nc1nc(NCc2ccccc2S(=O)(=O)C(C)C)c2c(ccn2C)n1 [IIL-2] | – | – | – | – | 627 | good targeting selectivity | 1420 | 1820 | 2620
3 | CC(C)S(=O)(=O)c1ccccc1Nc1nc(Nc2ccc(S(N)(=O)=O)cc2)nc2ccn(C)c12 [IID-4] | – | – | – | – | ~3290 | – | ~6440 | ~6350 | 7540
4 | CSc1ccccc1Nc1nc(Nc2ccc(S(N)(=O)=O)cc2)nc2ccn(C)c12 [IIA-4] | – | – | – | – | 1300 | – | 1320 | 2700 | 2570
5 | CSc1ccccc1CNc1nc(Nc2ccc(N3CCC(O)CC3)cc2)nc2ccn(C)c12 [III-2] | – | – | – | – | > 10000 | – | > 10000 | > 10000 | > 10000
6 | CCC(C)OC(=O)c1ccccc1Nc1nc(Nc2ccc(N3CCC(N4CCN(C)CC4)CC3)cc2OC)nc2cc[nH]c12 (stereo not drawn) [IH-3] | ~446 | 502 | ~859 | ~949 | – | – | – | – | –
7 | COc1cc(N2CCN(C)CC2)ccc1Nc1nc(Nc2ccccc2SC(C)C)c2[nH]ccc2n1 [IB-1] | ~895 | ~2410 | 1450 | ~2800 | – | – | – | – | –
8 | COc1cc(C2CCN(C)CC2)c(C)cc1Nc1nc(Nc2ccccc2S(=O)(=O)C(C)C)c2[nH]ccc2n1 [ID-7] | 544 | ~1080 | ~1170 | ~2960 | – | – | – | – | –
9 | COc1cc(N2CCC(N3CCN(C)CC3)CC2)ccc1Nc1nc(NCc2ccccc2S(C)(=O)=O)c2[nH]ccc2n1 [IN-2] | > 10000 | > 10000 | > 10000 | > 10000 | – | – | – | – | –
10 | COC(=O)c1ccccc1Nc1nc(Nc2ccc(OCc3ccccn3)cc2)nc2cc[nH]c12 [IG-8] | 1830 | 1530 | 1670 | 3860 | – | – | – | – | –
11 | COC(=O)c1ccccc1Nc1nc(Nc2ccc(N3CCN(C)CC3)cc2OC)nc2cc[nH]c12 [IG-1] | 1470 | 1160 | 1800 | 2340 | – | – | – | – | –
12 | COC(=O)c1ccccc1Oc1nc(Nc2ccc(S(N)(=O)=O)cc2)nc2ccn(C)c12 [IIN-4] | – | – | – | – | > 10000 | – | > 10000 | > 10000 | > 10000
13 | COC(=O)c1ccccc1Sc1nc(Nc2ccc(S(N)(=O)=O)cc2)nc2cc[nH]c12 [IU-4] | 9110 | 5990 | > 10000 | > 10000 | – | – | – | – | –
14 | COC(=O)c1ccccc1Nc1nc(Nc2ccc(C(=O)N3CCOCC3)cc2OC)nc2cc[nH]c12 [IG-17] | 7610 | ~9460 | 7670 | 9390 | – | – | – | – | –
15 | CC(C)S(=O)(=O)c1ccccc1CNc1nc(Nc2ccc(N3CCN(C)CC3)cc2)nc2ccn(C)c12 [IIL-5] | – | – | – | – | 1140 | – | 1530 | 848 | ~2760
16 | COC(=O)c1cccc(Nc2nc(Nc3ccc(N4CCC(N5CCCC5)CC4)cc3OC)nc3cc[nH]c23)c1 [II-6] | 4960 | ~7400 | 6720 | ~8220 | – | – | – | – | –
17 | CC(C)Sc1ccccc1Nc1nc(Nc2ccc(S(N)(=O)=O)cc2)nc2cc[nH]c12 [IB-3] | 4220 | 8700 | 8830 | > 10000 | – | – | – | – | –
18 | CC(C)Sc1ccccc1CNc1nc(Nc2ccc(N3CCC(O)CC3)cc2)nc2ccn(C)c12 [IIJ-2] | – | – | – | – | 1710 | – | 1610 | 1610 | ~2860
19 | CSc1ccccc1Nc1nc(Nc2ccc(S(N)(=O)=O)cc2)nc2cc[nH]c12 [IA-3] | 2420 | 6630 | 12900 | 7710 | – | – | – | – | –
20 | CCC(C)OC(=O)c1ccccc1Nc1nc(Nc2ccc(N3CCN(C)CC3)cc2OC)nc2cc[nH]c12 (stereo not drawn) [IH-1] | 1120 | 916 | 1560 | 2070 | – | – | – | – | –
